Measured values: PubChem BioAssay AID1845204 (Molecular Pharmacology Branch, DTP, NCI, 2023)
Several values for one entry are separate records, joined by “and”; a condition that tells them apart may be missing. Equal values may be shown once.

Tested on: HSSY-II tumor spheroid viability
Experiment: Anticancer human tumor HSSY-II cell line growth inhibition;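 note: spheroids exposed to compounds for seven days before reading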;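 for viability, T/C: percent of DMSO vehicle control viability so 100% = untreated level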
Conditions: spheroids with HUVEC and MSC; for viability, T/C: stronger effect = lower value
From the text: Multicellular complex tumor spheroid response to DNA repair inhibitors in combination with DNA-damaging drugs
This study explores the anticancer activities of DNA-damaging drugs and inhibitors of DNA damage repair, both as single agents and in combinations. Complex tumor spheroids comprised of malignant cells, endothelial cells and mesenchymal stem cells served as an in vitro model for human solid tumors. This model system incorporates physiologically relevant features and patient-derived or established malignant cell lines with clinically relevant genetic alterations from many tumor types. Twenty-six patient-derived or established malignant cell lines were evaluated representing sarcoma, melanoma, small cell lung cancer (SCLC), non-small cell lung cancer (NSCLC), as well as bladder, ovarian and pancreatic cancers. The concentration ranges selected for each drug and investigational agent were based upon clinically achievable concentrations if the clinical Cmax of the agent was known.
Compounds. The drugs and compounds olaparib (NSC753686), talazoparib (NSC767125), berzosertib (NSC777718), elimusertib (NSC800525), nedisertib (NSC802822), VX-984 (NSC792969), AZD-1390 (NSC803789), temozolomide (NSC362856), topotecan (NSC609699), trabectedin (NSC813783), staurosporine (NSC755774), and gemcitabine (NSC613327) were obtained from the National Cancer Institute (NCI) Developmental Therapeutics Program Chemical Repository. The FDA-approved anticancer drug set is available from the Developmental Therapeutics Program at https://dtp.cancer.gov/organization/dscb/obtaining/available_plates.htm. […] The stock solutions were prepared in dimethyl sulfoxide (DMSO, Sigma-Aldrich, St. Louis, MO, cat. D2650) at 400-fold the tested concentration and stored at -70 degrees C. Prior to their use, the stock solutions were diluted in fresh medium and the final DMSO concentration in the assay was 0.25% (v/v). All drugs and investigational agents were tested over a range starting from a high concentration at or near the clinical Cmax and decreasing in half-log increments. If the clinical Cmax for an agent had not been determined, the highest concentration tested was 10 microM.
Cell Lines. The patient-derived cancer cell (PDC) lines: 156681-154-R-J1-PDC, 283228-195-R-J1-PDC, 287954-098-R-J1-PDC, 292921-168-R-J2-PDC, 349418-098-R-PDC, 425362-245-T-J1-PDC, 556581-035-R-J1-PDC, and BL0293-F563-PDC were received from the NCI Patient-Derived Models Repository (PDMR, https://pdmr.cancer.gov). The established cell lines HS-SY-2 (RRID:CVCL_8719), MPNST, and SYO-1 (RRID:CVCL_7146) were obtained from the Sloan Kettering Institute. The alveolar soft parts sarcoma cell line ASPS-1 (RRID:CVCL_S738) was established at the NCI and grown from internal seed stocks. The following established cell lines were purchased from the American Type Culture Collection (ATCC, Manassas, VA): G-401 (ATCC, cat. CRL-1441, RRID:CVCL_0270), SW982 (ATCC, cat. HTB-93, RRID:CVCL_1734), VA-ES-BJ (ATCC, cat. CRL-2138, RRID:CVCL_1785), NCI-H719 (ATCC, cat. CRL-5837, RRID:CVCL_1582), NCI-H196 (ATCC, cat. CRL-5823, RRID:CVCL_1509), NCI-H841 (ATCC, cat. CRL-5845, RRID:CVCL_1595), NCI-H1618 (ATCC, cat. CRL-5879, RRID:CVCL_1480), NCI-H1876 (ATCC, cat. CRL-5902, RRID:CVCL_1503), DMS 114 (ATCC, cat. CRL-2066; RRID:CVCL_1174), NCI-H211 (ATCC, cat. CRL-5824; RRID:CVCL_1529), and SW 1271 (ATCC, cat. CRL-2177, RRID:CVCL_1716). The small cell lung cancer cell line COR-L88 was purchased from Sigma-Aldrich (cat. 92031917-1VL, RRID:CVCL_1141). The non-small cell lung cancer cell lines NCI-H226 (RRID:CVCL_1544) and NCI-H322M (RRID:CVCL_1557) were established at the NCI and grown from internal seed stocks. Pooled donor human umbilical vein endothelial cells (HUVEC, Lonza, cat. CC-2519) and human mesenchymal stem cells (hMSC, Lonza, cat. PT-2501) were purchased from Lonza (Walkersville, MD).
Cell Culture. All cells were maintained in an incubator at 37 degrees C and 5% CO2 with 95% humidity. […]

For `Cc1sc2c(c1C)C(c1ccc(Cl)cc1)=NC(CC(=O)Nc1ccc(O)cc1)c1nnc(C)n1-2` (stereo unspecified) + Cn1nnc2c(C(N)=O)ncn2c1=O, the IC50 (curve of first compound, second compound 1 µM) was 0.164 µM, the IC50 (curve of first compound, second compound 3.16 µM) was 0.178 µM and the IC50 (curve of first compound, second compound 10 µM) was 0.158 µM. It also gave an IC50 (curve of first compound, second compound 31.6 µM) of 0.194 µM, an IC50 (curve of first compound, second compound 100 µM) of 0.169 µM and a viability, T/C (second compound 1 µM, first compound 0.00949 µM) of 98.5%. The viability, T/C (second compound 1 µM, first compound 0.03 µM) was 85.1%, the viability, T/C (second compound 1 µM, first compound 0.0949 µM) was 64.7% and the viability, T/C (second compound 1 µM, first compound 0.3 µM) was 34.3%. The viability, T/C (second compound 1 µM, first compound 0.949 µM) was 19.3%, the viability, T/C (second compound 1 µM, first compound 3 µM) was 12.8% and the viability, T/C (second compound 3.16 µM, first compound 0.00949 µM) was 101%. It also gave a viability, T/C (second compound 3.16 µM, first compound 0.03 µM) of 90.6%, a viability, T/C (second compound 3.16 µM, first compound 0.0949 µM) of 65.9% and a viability, T/C (second compound 3.16 µM, first compound 0.3 µM) of 35.9%. The viability, T/C (second compound 3.16 µM, first compound 0.949 µM) was 21.6%, the viability, T/C (second compound 3.16 µM, first compound 3 µM) was 12% and the viability, T/C (second compound 10 µM, first compound 0.00949 µM) was 101%. For the same compound, the viability, T/C (second compound 10 µM, first compound 0.03 µM) was 92.9%, the viability, T/C (second compound 10 µM, first compound 0.0949 µM) was 62.3% and the viability, T/C (second compound 10 µM, first compound 0.3 µM) was 32.6%. The viability, T/C (second compound 10 µM, first compound 0.949 µM) was 20.1%, the viability, T/C (second compound 10 µM, first compound 3 µM) was 11.2% and the viability, T/C (second compound 31.6 µM, first compound 0.00949 µM) was 105%. It also gave a viability, T/C (second compound 31.6 µM, first compound 0.03 µM) of 98%, a viability, T/C (second compound 31.6 µM, first compound 0.0949 µM) of 69.3% and a viability, T/C (second compound 31.6 µM, first compound 0.3 µM) of 37.3%. The viability, T/C (second compound 31.6 µM, first compound 0.949 µM) was 18.7%, the viability, T/C (second compound 31.6 µM, first compound 3 µM) was 8.46% and the viability, T/C (second compound 100 µM, first compound 0.00949 µM) was 98.1%. The viability, T/C (second compound 100 µM, first compound 0.03 µM) was 89.5%, the viability, T/C (second compound 100 µM, first compound 0.0949 µM) was 68.7% and the viability, T/C (second compound 100 µM, first compound 0.3 µM) was 31.2%. The viability, T/C (second compound 100 µM, first compound 0.949 µM) was 13.2% and the viability, T/C (second compound 100 µM, first compound 3 µM) was 5.25%.

With `O=C(c1cc(Cc2n[nH]c(=O)c3ccccc23)ccc1F)N1CCN(C(=O)C2CC2)CC1` the viability, T/C (compound 0.0949 µM) was 99.1% and 104% and 93.2%, the viability, T/C (compound 0.3 µM) was 91.7% and 90.6% and 98.3% and the viability, T/C (compound 0.949 µM) was 82.3% and 86.8% and 90.7%. The viability, T/C (compound 3 µM) was 70.6% and 67.4% and 65.8%, the viability, T/C (compound 9.49 µM) was 30.7% and 11.5% and 17.9% and the IC50 (curve of compound) was 6.16 µM and 4.28 µM and 4.38 µM.
